Consider four substances from patent publication US11085056B2, “Transfection complexes and methods of using the same” (MOLECULAR TRANSFER, INC., priority 2015, dated 2021).

One test relates to HuVec Cells. As to the kind of experiment: Transfection of HuVec cells with DOTMA/DOPE/peptide and eGFP plasmid, fluorescent plate reader. In kind it is cell-based. Conditions: DOTMA/DOPE 1:1 plus peptide with RRRRRRRRRRRR (SEQ ID NO: 109) at n terminus; EF1Alpha eGFP plasmid; 0.01 mL complex; 42 hours. Here is the method: (§1) Cells were plated to so that on the day of transfection the cells were 60-70% confluent in 96 well tissue culture plates. A DOMTA/DOPE Lipid solution (1:1 molar ratio) at 2 mg/mL in water were mixed with an equal volume of surface ligand peptides that had the nucleic acid binding moiety RRRRRRRRRRRR (SEQ ID NO: 109) covalently linked to the n terminus of each peptide during peptide synthesis. Peptides were at 2 mg/mL in water. The DOTMA/DOPE and the surface ligand peptide solution the transfection reagent was diluted 1 to 1 (v/v) in water. DOMTA/DOPE/PEPTIDE solutions were added to 0.1 mL of a plasmid DNA solution (EF1Alpha eGFP plasmid) at 5 μg/mL in OptiMEM. Lipofectamine 2000 was obtained from Life Technologies.
(§2) All solutions were at room temperature. A volume of 0.2 mL of a 5 μg/mL solution of DNA was aliquoted into each well of a non-tissue cultured treated plate. 4.0 μL of transfection reagents were added to DNA solutions respectively. The transfection reagent and DNA solution was mixed by pipetting up and down twice. Transfection complexes were formed for 10 minutes. After 10 minutes, 0.01 or 0.02 mL of the transfection complex was added to cells. HuVEC, HeLa, human adult keratinocytes, human primary adult fibroblast, and rat cortical neurons all respectively received 0.01 mL of the tramsfectopm complex. Human skeletal muscle cells, mouse C2C12 cells, Jurkat, and THP-1 cells received 0.02 mL of the transfection complex. Cells were incubated for 42 hours at 37° C. at 5% CO2. Plates were read on a fluorescent plate reader. Cells were also examined visually under a microscope to assess the extent of transfection (in terms of the percent of cells transfected) with a fluorescent microscope. Other modes of analysis, for example quantification with B-galactosidase or luciferase reports plasmids can also be used. […] Surface ligand that caused increase expression of GFP over the lipid DOTMA with no surface ligand were considered to enhance transfection or had higher % cells transfected were considered to enhance transfection. Peptides that gave greater than 2 fold enhancement are noted in bold and could be further optimized by adding different transfection enhancers or could be used with different cationic lipids or polymers.

Test [1] concerns HeLa Cells. As to the kind of experiment: Transfection of HeLa cells with DOTMA/DOPE/peptide and eGFP plasmid, fluorescent plate reader. Conditions: DOTMA/DOPE 1:1 plus peptide with RRRRRRRRRRRR (SEQ ID NO: 109) at n terminus; EF1Alpha eGFP plasmid; 0.01 mL complex; 42 hours. Type of test: cell-based. As to the method: as §1, §2
Another test has as its system some examined cell types. As to the kind of experiment: Transfection expression and % cells transfected over the no peptide control. Type of test: cell-based. Conditions: on some examined cell types. Here is the method:
as §1, §2

Test [2] has as its system HeLa Cells. As to the kind of experiment: Transfection of HeLa cells with DOTMA/SEQ ID NO: 72/peptide compared with Lipofectamine 2000. Conditions: fusogenic peptide 0.1 mg/mL. Type of test: cell-based. As to the method: as §1, §2
The fusogenic peptide was added to the DOMTA/peptide formulation to achieve a final concentration of 0.1 mg/mL to see if transfection reagents were further enhanced by the addition of a fusogenic peptide and could provide higher transfection efficiency into HeLa cells and expression than the commercially available Lipofectamine 2000.

For the next test, the system named is C2C12 Cells. Briefly: Transfection of C2C12 cells with DOTMA/DOPE/peptide and eGFP plasmid, fluorescent plate reader. In kind it is cell-based, mouse. Conditions: DOTMA/DOPE 1:1 plus peptide with RRRRRRRRRRRR (SEQ ID NO: 109) at n terminus; EF1Alpha eGFP plasmid; 0.02 mL complex; 42 hours. As to the method:
as §1, §2

For the next test, the system named is Jurkat Cells. Briefly: Transfection of Jurkat cells with DOTMA/DOPE/peptide and eGFP plasmid, fluorescent plate reader. The following applies: DOTMA/DOPE 1:1 plus peptide with RRRRRRRRRRRR (SEQ ID NO: 109) at n terminus; EF1Alpha eGFP plasmid; 0.02 mL complex; 42 hours. Type of test: cell-based. Here is the method: as §1, §2
Another test deals with Human Fibroblast Cells. As to the kind of experiment: Transfection of human fibroblast cells with DOTMA/DOPE/peptide and eGFP plasmid, fluorescent plate reader. Type of test: cell-based. The following applies: DOTMA/DOPE 1:1 plus peptide with RRRRRRRRRRRR (SEQ ID NO: 109) at n terminus; EF1Alpha eGFP plasmid; 0.01 mL complex; 42 hours. Here is the method: as §1, §2
The next test has as its system NL-1 iPS Cells. Briefly: Transfection of NL-1 iPS cells with DOTMA/DOPE/peptide and eGFP plasmid, fluorescent plate reader. In kind it is cell-based. Conditions: DOTMA/DOPE 1:1 plus peptide with RRRRRRRRRRRR (SEQ ID NO: 109) at n terminus; EF1Alpha eGFP plasmid; 42 hours. Here is the method:
as §1, §2

[3] abbreviates: 0.1 μL of DOTMA/SEQ ID NO: 72/Peptide in well of a 96 well plate.
Where [4] appears, read: 0.2 μL of DOTMA/SEQ ID NO: 72/Peptide in well of a 96 well plate.
Where [5] appears, read: 0.3 μL of DOTMA/SEQ ID NO: 72/Peptide in well of a 96 well plate.
[6] abbreviates: 0.4 μL of DOTMA/SEQ ID NO: 72/Peptide in well of a 96 well plate.

As to “381 (TAGSCL; Peptidic transfection agent) [compound 381]”, the “RF (Relative Fluorescence) of Transfection of HuVec Cells” value with HuVec Cells amounted to 17542. Further, the “RF (Relative Fluorescence) of Transfection of HeLa Cells” value with HeLa Cells [1] turned out to be 22652. The “transfection expression and the % cells transfected over the no peptide control” value in the test with some examined cell types was “increased”. For the same substance, the “RF (Relative Fluorescence), DOTMA/SEQ ID NO: 72/Peptide, HeLa Cells” value in the test on HeLa Cells [2] (setting [3]) was 34187; in the test on HeLa Cells [2] (setting [4]) it was 37463; with HeLa Cells [2] (setting [5]), 27007; in the test on HeLa Cells [2] (setting [6]), 20088. In addition, in the test with C2C12 Cells, the “RF (Relative Fluorescence) of Transfection of C2C12 Cells” value was found to be 8834. Also, the “RF (Relative Fluorescence) of Transfection of Jurkat Cells” value in the test on Jurkat Cells is 10806. Moreover, the “RF (Relative Fluorescence) of Transfection of Human Fibroblast Cells” value with Human Fibroblast Cells is on record as 9953. In addition, in the test with NL-1 iPS Cells, the “RF (Relative Fluorescence) of Transfection of NL-1 iPS Cells” value amounted to 9644.
In the case of “341 (LRAHAVDVNG; Peptidic transfection agent) [compound 341]”, in the test with HuVec Cells, the “RF (Relative Fluorescence) of Transfection of HuVec Cells” value amounted to 15906. Besides, in the test with HeLa Cells [1], the “RF (Relative Fluorescence) of Transfection of HeLa Cells” value is given as 4108. The “transfection expression and the % cells transfected over the no peptide control” value with some examined cell types is “increased”. For the same substance, the “RF (Relative Fluorescence), DOTMA/SEQ ID NO: 72/Peptide, HeLa Cells” value came to 6406 with HeLa Cells [2] (setting [3]), 7469 with HeLa Cells [2] (setting [4]), 8020 in the test on HeLa Cells [2] (setting [5]) and 7546 in the test with HeLa Cells [2] (setting [6]). Further, the “RF (Relative Fluorescence) of Transfection of C2C12 Cells” value in the test on C2C12 Cells is 2141. The “RF (Relative Fluorescence) of Transfection of Jurkat Cells” value in the test on Jurkat Cells was found to be 18042. Besides, the “RF (Relative Fluorescence) of Transfection of Human Fibroblast Cells” value with Human Fibroblast Cells is recorded as 2284. Moreover, the “RF (Relative Fluorescence) of Transfection of NL-1 iPS Cells” value in the test on NL-1 iPS Cells is on record as 20446.
On to “365 (ISRCQVCMKKRH; Peptidic transfection agent) [compound 365]”, for which the “RF (Relative Fluorescence) of Transfection of HuVec Cells” value in the test on HuVec Cells amounted to 14764. In the test on HeLa Cells [1], the “RF (Relative Fluorescence) of Transfection of HeLa Cells” value worked out at 36093. Moreover, the “transfection expression and the % cells transfected over the no peptide control” value in the test on some examined cell types is “increased”. The “RF (Relative Fluorescence), DOTMA/SEQ ID NO: 72/Peptide, HeLa Cells” value in the test with HeLa Cells [2] (setting [3]) came out at 26620; in the test with HeLa Cells [2] (setting [4]), 43775; in the test with HeLa Cells [2] (setting [5]) it was 36054; in the test on HeLa Cells [2] (setting [6]) it was 21540. Moreover, the “RF (Relative Fluorescence) of Transfection of C2C12 Cells” value in the test on C2C12 Cells is 5390. Also, in the test with Jurkat Cells, the “RF (Relative Fluorescence) of Transfection of Jurkat Cells” value was found to be 5298. Moreover, in the test on Human Fibroblast Cells, the “RF (Relative Fluorescence) of Transfection of Human Fibroblast Cells” value stood at 5219. Besides, the “RF (Relative Fluorescence) of Transfection of NL-1 iPS Cells” value in the test with NL-1 iPS Cells stood at 6364.
Consider “369 (TAIPSCPEGTVPLYS; Peptidic transfection agent) [compound 369]”, for which the “RF (Relative Fluorescence) of Transfection of HuVec Cells” value in the test with HuVec Cells came out at 6536. In the test on HeLa Cells [1], the “RF (Relative Fluorescence) of Transfection of HeLa Cells” value is 14444. For the same substance, the “transfection expression and the % cells transfected over the no peptide control” value with some examined cell types is recorded as “increased”. The “RF (Relative Fluorescence), DOTMA/SEQ ID NO: 72/Peptide, HeLa Cells” value is 8737 in the test with HeLa Cells [2] (setting [3]), 16706 in the test on HeLa Cells [2] (setting [4]), 14880 in the test on HeLa Cells [2] (setting [5]) and 12645 in the test with HeLa Cells [2] (setting [6]). Further, the “RF (Relative Fluorescence) of Transfection of C2C12 Cells” value in the test with C2C12 Cells is on record as 3322. Also, the “RF (Relative Fluorescence) of Transfection of Jurkat Cells” value with Jurkat Cells was found to be 11085. In addition, in the test on Human Fibroblast Cells, the “RF (Relative Fluorescence) of Transfection of Human Fibroblast Cells” value stood at 7590. Besides, the “RF (Relative Fluorescence) of Transfection of NL-1 iPS Cells” value in the test with NL-1 iPS Cells is reported as 13124.
